Source: patent publication US10214546B2, “Btk inhibitors” (MERCK SHARP & DOHME CORP., priority 2014, dated 2019)
Like-named read-outs stand apart in the source and are kept apart here.

Columns and labels:
[1] = test system: adenosine uptake into HeLa cells; experiment: [3H]Adenosine uptake assay in HeLa cells; format: cell-based; details: [3H]adenosine accumulation in HeLa cells, compound range 10 μM to 0.032 nM, read-out: ADU inhibition IC50
How it was run: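 HeLa cells in HBSS + 5% FBS were preincubated 30 min at ambient temperature with compound (ten-point 1:3 series, 10 µM–[…] final), then given [3H]adenosine (added as a 500 nM solution) for 60 min. Cell-associated label was read by scintillating-plate proximity counting; IC50 from 4-parameter fit of cps versus log concentration.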

[2] = target: BTK enzyme (recombinant full-length BTK, hBTK) (Homo sapiens (Human), UniProt Q06187); experiment: BTK enzymatic activity LANCE TR-FRET assay; format: biochemical; details: 50 pM hBTK, 25 μM ATP, 2 μM biotin-A5-peptide; compound range 1 μM to 0.017 nM; read-out: BTK binding IC50
Chain of BTK enzyme (recombinant full-length BTK, hBTK) (Q06187 whole entry): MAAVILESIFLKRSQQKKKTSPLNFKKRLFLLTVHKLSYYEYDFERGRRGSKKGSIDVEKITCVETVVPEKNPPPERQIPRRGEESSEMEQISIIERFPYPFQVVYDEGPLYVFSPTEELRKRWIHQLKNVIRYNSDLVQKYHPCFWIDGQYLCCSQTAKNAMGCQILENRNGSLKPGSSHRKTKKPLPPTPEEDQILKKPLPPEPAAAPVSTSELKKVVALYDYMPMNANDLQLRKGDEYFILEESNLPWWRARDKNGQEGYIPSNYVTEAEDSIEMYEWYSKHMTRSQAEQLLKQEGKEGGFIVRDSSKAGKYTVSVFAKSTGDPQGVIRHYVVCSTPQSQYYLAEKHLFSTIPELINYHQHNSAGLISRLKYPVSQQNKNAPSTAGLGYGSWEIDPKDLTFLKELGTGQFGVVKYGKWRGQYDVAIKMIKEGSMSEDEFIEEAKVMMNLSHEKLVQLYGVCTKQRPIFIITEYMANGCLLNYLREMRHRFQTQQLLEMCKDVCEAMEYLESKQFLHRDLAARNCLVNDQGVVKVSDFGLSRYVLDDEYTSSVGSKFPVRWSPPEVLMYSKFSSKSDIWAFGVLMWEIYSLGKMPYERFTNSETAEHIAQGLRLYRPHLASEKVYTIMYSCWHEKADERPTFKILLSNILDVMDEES

IC50 ([1]; Homo sapiens, HeLa) [nM]	IC50 [2] [nM]	IC50 [1] [nM]	SMILES
901	583		C[C@](O)(c1ccc(-c2nc([C@@H]3CC[C@H]4CCC(=O)N4C3)n3ccnc(N)c23)cc1)c1cccc(OC(F)(F)F)c1 [Example 56, (6R,8aS)-6-[8-amino-1-(4-{(1S)-1-hydroxy-1-[3-(trifluoromethoxy)phenyl]ethyl}phenyl)imidazo [1,5-a]pyrazin-3-yl]hexahydroindolizin-3(2H)-one]
3320	0.88		C[C@@](O)(c1ccc(-c2nc([C@@H]3CC[C@H]4CCC(=O)N4C3)n3ccnc(N)c23)cc1)c1cccc(OC(F)(F)F)c1 [Example 57, (6R,8aS)-6-[8-amino-1-(4-{(1R)-1-hydroxy-1-[3-(trifluoromethoxy)phenyl]ethyl}phenyl)imidazo [1,5-a]pyrazin-3-yl]hexahydroindolizin-3(2H)-one]
1010	30.4		C[C@](O)(c1ccc(-c2nc([C@@H]3CC[C@H]4CCC(=O)N4C3)n3ccnc(N)c23)cc1)c1cccc(C(F)F)c1 [Example 70, (6R,8aS)-6-[8-amino-1-(4-{(1S)-1-[3-(difluoromethyl)phenyl]-1-hydroxyethyl}phenyl)imidazo[1,5-a]pyrazin-3-yl]hexahydroindolizin-3(2H)-one]
5120	0.19		C[C@@](O)(c1ccc(-c2nc([C@@H]3CC[C@H]4CCC(=O)N4C3)n3ccnc(N)c23)cc1)c1cccc(C(F)F)c1 [Example 71, (6R,8aS)-6-[8-amino-1-(4-{(1R)-1-[3-(difluoromethyl)phenyl]-1-hydroxyethyl}phenyl)imidazo[1,5-a]pyrazin-3-yl]hexahydroindolizin-3(2H)-one]
463	15		CC(C)c1cccc([C@@](C)(O)c2ccc(-c3nc([C@@H]4CC[C@H]5CCC(=O)N5C4)n4ccnc(N)c34)cc2)c1 [Example 74, (6R,8aS)-6-[8-amino-1-(4-{(1S)-1-hydroxy-1-[3(1-methylethyl)phenyl]ethyl}phenyl)imidazo[1,5-a]pyrazin-3-yl]hexahydroindolizin-3(2H)-one]
2010	0.21		CC(C)c1cccc([C@](C)(O)c2ccc(-c3nc([C@@H]4CC[C@H]5CCC(=O)N5C4)n4ccnc(N)c34)cc2)c1 [Example 75, (6R,8aS)-6-[8-amino-1-(4-{(1R)-1-hydroxy-1-[3(1-methylethyl)phenyl]ethyl}phenyl)imidazo[1,5-a]pyrazin-3-yl]hexahydroindolizin-3(2H)-one]
1040	24.2		C[C@](O)(c1ccc(-c2nc([C@@H]3CC[C@H]4CCC(=O)N4C3)n3ccnc(N)c23)cc1)c1cccc(CC(F)(F)F)c1 [Example 77, (6R,8aS)-6-[8-amino-1-(4-{(1S)-1-hydroxy-1-[3-(2,2,2-trifluoroethyl)phenyl]ethyl}phenyl)imidazo[1,5-a]pyrazin-3-yl]hexahydroindolizin-3(2H)-one]
2850	0.17		C[C@@](O)(c1ccc(-c2nc([C@@H]3CC[C@H]4CCC(=O)N4C3)n3ccnc(N)c23)cc1)c1cccc(CC(F)(F)F)c1 [Example 78, (6R,8aS)-6-[8-amino-1-(4-{(1R)-1-hydroxy-1-[3-(2,2,2-trifluoroethyl)phenyl]ethyl}phenyl)imidazo[1,5-a]pyrazin-3-yl]hexahydroindolizin-3(2H)-one]

Continued, molecule first:

SMILES	IC50 ([1]; Homo sapiens, HeLa) [nM]	IC50 [2] [nM]	IC50 [1] [nM]
C[C@](O)(c1ccc(-c2nc([C@@H]3CC[C@H]4CCC(=O)N4C3)n3ccnc(N)c23)cc1)c1cccc(-c2ccccc2)c1 [Example 58, (6R,8aS)-6-(8-amino-1-{4-[(1S)-1-biphenyl-3-yl-1-hydroxyethyl]phenyl}imidazo[1,5-a]pyrazin-3-yl)hexahydroindolizin-3(2H)-one]	450	63.1	
C[C@@](O)(c1ccc(-c2nc([C@@H]3CC[C@H]4CCC(=O)N4C3)n3ccnc(N)c23)cc1)c1cccc(-c2ccccc2)c1 [Example 59, (6R,8aS)-6-(8-amino-1-{4-[(1R)-1-biphenyl-3-yl-1-hydroxyethyl]phenyl}imidazo[1,5-a]pyrazin-3-yl)hexahydroindolizin-3(2H)-one]	1250	0.93	
CC(O)(c1cccc(C(F)(F)F)c1)c1ccc(-c2nc([C@@H]3CC[C@H]4CCC(=O)N4C3)n3ccnc(N)c23)cc1F (stereo partly drawn) [Example 60, (6R,8aS)-6-[8-amino-1-(3-fluoro-4-{1-hydroxy-1-[3-(trifluoromethyl)phenyl]ethyl}phenyl)imidazo [1,5-a]pyrazin-3-yl]hexahydroindolizin-3(2H)-one]		36.7	3360
CCC(O)(c1ccc(-c2nc([C@@H]3CC[C@H]4CCC(=O)N4C3)n3ccnc(N)c23)cc1)c1cccc(C(F)(F)F)c1 (stereo partly drawn) [Example 61, (6R,8aS)-6-[8-amino-1-(4-{1-hydroxy-1-[3-(trifluoromethyl)phenyl]propyl}phenyl)imidazo [1,5-a]pyrazin-3-yl]hexahydroindolizin-3(2H)-one]		72	1710
C[C@@](O)(c1ccc(-c2nc([C@@H]3CC[C@H]4CCCN4C3)n3ccnc(N)c23)cc1)c1cccc(C(F)(F)F)c1 [Example 62, (1R)-1-(4-{8-amino-3-[(6R,8aS)-octahydroindolizin-6-yl]imidazo[1,5-a]pyrazin-1-yl}phenyl)-1-[3-(trifluoromethyl)phenyl] ethanol]	2300	19.7	
C[C@](O)(c1ccc(-c2nc([C@@H]3CC[C@H]4CCCN4C3)n3ccnc(N)c23)cc1)c1cccc(C(F)(F)F)c1 [Example 63, (1S)-1-(4-{8-amino-3-[(6R,8aS)-octahydroindolizin-6-yl]imidazo[1,5-a]pyrazin-1-yl}phenyl)-1-[3-(trifluoromethyl)phenyl] ethanol]	1470	1000	
COc1cc(-c2nc([C@@H]3CC[C@H]4CCC(=O)N4C3)n3ccnc(N)c23)ccc1C(C)(O)c1cccc(C(F)(F)F)c1 (stereo partly drawn) [Example 64, (6R,8aS)-6-[8-amino-1-(4-{1-hydroxy-1-[3-(trifluoromethyl)phenyl]ethyl}-3-methoxyphenyl)imidao [1,5-a]pyrazin-3-yl]hexahydroindolizin-3(2H)-one]		59.1	936
COc1cc(-c2nc([C@@H]3CC[C@H]4CCC(=O)N4C3)n3ccnc(N)c23)ccc1C(C)(O)c1cccc(C(F)(F)F)c1 (stereo partly drawn) [Example 65, (6R,8aS)-6-[8-amino-1-(4-{1-hydroxy-1-[3-(trifluoromethyl)phenyl]ethyl}-3-methoxyphenyl)imidazo [1,5-a]pyrazin-3-yl]hexahydroindolizin-3(2H)-one]		7	10000
C[C@@](O)(c1ccc(-c2nc([C@@H]3CC[C@H]4CCC(=O)N4C3)n3ccnc(N)c23)cc1)c1cccc(N2CCOCC2)c1 [Example 66, (6R,8aS)-6-(8-amino-1-{4-[(1R)-1-hydroxy-1-(3-morpholin-4-ylphenyl)ethyl]phenyl}imidazo[1,5-a]pyrazin-3-yl)hexahydroindolizin-3(2H)-one]	4190	796	
C[C@](O)(c1ccc(-c2nc([C@@H]3CC[C@H]4CCC(=O)N4C3)n3ccnc(N)c23)cc1)c1cccc(N2CCOCC2)c1 [Example 67, (6R,8aS)-6-(8-amino-1-{4-[(1S)-1-hydroxy-1-(3-morpholin-4-ylphenyl)ethyl]phenyl}imidazo[1,5-a]pyrazin-3-yl)hexahydroindolizin-3(2H)-one]	8500	15.4	
C[C@](O)(c1ccc(-c2nc([C@@H]3CC[C@H]4CCC(=O)N4C3)n3ccnc(N)c23)cc1)c1ccccc1F [Example 68, (6R,8aS)-6-(8-amino-1-{4-[(1S)-1-(2-fluorophenyl)-1-hydroxyethyl]phenyl}imidazo[1,5-a]pyrazin-3-yl)hexahydroindolizin-3(2H)-one]	5550	460	
C[C@@](O)(c1ccc(-c2nc([C@@H]3CC[C@H]4CCC(=O)N4C3)n3ccnc(N)c23)cc1)c1ccccc1F [Example 69, (6R,8aS)-6-(8-amino-1-{4-[(1R)-1-(2-fluorophenyl)-1-hydroxyethyl]phenyl}imidazo[1,5-a]pyrazin-3-yl)hexahydroindolizin-3(2H)-one]	6470	4.9	
Nc1nccn2c([C@@H]3CC[C@H]4CCC(=O)N4C3)nc(-c3ccc(C(O)c4cccc(C(F)(F)F)c4)cc3)c12 (stereo partly drawn) [Example 72, (6R,8aS)-6-[8-amino-1-(4-{hydroxy[3-(trifluoromethyl)phenyl]methyl}phenyl)imidazo [1,5-a]pyrazin-3-yl]hexahydroindolizin-3(2H)-one]		20.4	469
Nc1nccn2c([C@@H]3CC[C@H]4CCC(=O)N4C3)nc(-c3ccc(C(O)c4cccc(C(F)(F)F)c4)cc3)c12 (stereo partly drawn) [Example 73, (6R,8aS)-6-[8-amino-1-(4-{hydroxy[3-(trifluoromethyl)phenyl]methyl}phenyl)imidazo [1,5-a]pyrazin-3-yl]hexahydroindolizin-3(2H)-one]		0.41	1350
CC(C)C(O)(c1ccc(-c2nc([C@@H]3CC[C@H]4CCC(=O)N4C3)n3ccnc(N)c23)cc1)c1cccc(C(F)(F)F)c1 (stereo partly drawn) [Example 76, (6R,8aS)-6-[8-amino-1-(4-{1-hydroxy-2-methyl-1-[3-(trifluoromethyl)phenyl]propyl}phenyl)imidazo [1,5-a]pyrazin-3-yl]hexahydroindolizin-3(2H)-one]	2100	1000	
CC(C)C(O)(c1ccc(-c2nc([C@@H]3CC[C@H]4CCC(=O)N4C3)n3ccnc(N)c23)cc1)c1cccc(C(F)(F)F)c1 (stereo partly drawn) [Example 79, (6R,8aS)-6-[8-amino-1-(4-{1-hydroxy-2-methyl-1-[3-(trifluoromethyl)phenyl]propyl}phenyl)imidazo [1,5-a]pyrazin-3-yl]hexahydroindolizin-3(2H)-one]		204	1470
